Reference: US11932630B2, “Heteroaryl aminopropanol derivatives” (NOVARTIS AG, priority 2021, dated 2024)

Key:
[1] = Hygroscopicity by DVS; format: physicochemical; conditions: for Hygroscopicity (DVS), moisture / water vapor absorbed: at 95% RH
[2] = Loss on drying by TGA after storage at 92 % RH; format: physicochemical; conditions: heating rate 10 K/min, % @ °C, temperature in the line below (100, 230, 170, 195 °C)
Description: Thermoaravimetric Analysis (TGA):
TGA curves were obtained using a TA-instrument Q5000. 0.5-2 mg of sample was placed into an open aluminum pan. The TGA curve was measured at 10° C./min between 30-300° C. The LoD (Loss of drying) was calculated between 30° C. and 100° C. or 150° C. The weight loss is plotted against the measured sample temperature. Temperatures are reported in degrees Celsius (° C.) and weight loss in %.

[3] = target: T1, human LTA4H (Homo sapiens, UniProt P09960); experiment: Human LTA4H enzyme assay (Arg-AMC substrate); format: biochemical; conditions: Arg-AMC 600 μM, 9 nM human LTA4H, 15 min pre-incubation; mean values of at least 3 measurements; read-out: ArgAMC IC50
T1 sequence (P09960 1-611): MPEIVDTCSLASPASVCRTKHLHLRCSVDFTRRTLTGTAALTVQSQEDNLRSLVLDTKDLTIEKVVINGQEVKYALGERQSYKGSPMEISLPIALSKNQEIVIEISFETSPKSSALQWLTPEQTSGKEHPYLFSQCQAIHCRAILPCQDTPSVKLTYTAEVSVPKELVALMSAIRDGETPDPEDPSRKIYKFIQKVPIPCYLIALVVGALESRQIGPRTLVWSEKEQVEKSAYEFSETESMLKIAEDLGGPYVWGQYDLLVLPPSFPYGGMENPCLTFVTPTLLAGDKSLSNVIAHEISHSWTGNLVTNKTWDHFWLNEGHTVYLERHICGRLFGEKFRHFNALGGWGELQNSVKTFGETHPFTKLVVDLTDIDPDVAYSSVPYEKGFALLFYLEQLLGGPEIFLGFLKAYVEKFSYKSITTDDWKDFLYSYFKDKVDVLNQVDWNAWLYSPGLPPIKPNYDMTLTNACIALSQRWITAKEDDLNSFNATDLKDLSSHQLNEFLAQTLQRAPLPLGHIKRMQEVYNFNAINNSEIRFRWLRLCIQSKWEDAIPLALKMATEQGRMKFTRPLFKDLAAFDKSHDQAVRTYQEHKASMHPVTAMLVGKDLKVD
Description: a) Human LTA4H Enzyme Assay:
[…] (LTA4H) catalyzes the vinylogous hydrolysis of the epoxide, leukotriene A4 (LTA4) into the pro-inflammatory mediator LTB4.
For compound testing, compounds are delivered as 10 mM stock solutions in 90% DMSO (10% water) in matrix tubes. […] A final substrate concentration of 600 μM, which is around the KM value of Arg-AMC, at a final enzyme concentration of 9 nM is chosen. Upon addition of the substrate, the plate is immediately placed in a fluorescence reader and the fluorescence is measured every 10 minutes for 60 minutes using the filter setting λ excitation=380 nm and A emission=460 nm. […] Raw data is converted to rate (moles per minute) using the AMC calibration curve calculated from the AMC standards. The data is analyzed in GraphPad Prism (GraphPad software Inc.) using non-linear regression to determine IC50 values of LTA4H inhibitors.

[4] = system: LTB4 biosynthesis in human whole blood; experiment: Human whole blood assay (hWB), inhibition of LTB4 biosynthesis; format: cell-based; conditions: human blood diluted 1:3, 4 hours with compound, 10 μg/ml A23187 for 15 min, eicosanoid by ELISA; read-out: hWB IC50
Description: b) Human Whole Blood Assay:
Compounds are tested in a human whole blood assay (hWB) to test their ability to inhibit LTB4 biosynthesis in a human cellular system. To this end, fresh blood is collected in heparinized vacutainers by venipuncture from volunteers. Blood is diluted 1:3 with RPM (Roswell Park Memorial Institute) medium and aliquots of 200 μL are transferred to 96-well round bottom cell culture plates. For compound testing, compounds are delivered as 10 mM stock solutions in 90% DMSO in matrix tubes. […] 4 μL of compound dilution or vehicle is added to 200 μL of blood and incubated for 4 hours at 37° C. in a humidified incubator. […] Incubation is terminated by centrifugation at 300 g for 10 min at 22° C. Plasma supernatant is taken and transferred to a 96 well plate for eicosanoid determination by ELISA (Assay designs) according to the manufacturer's protocol after 1:20 dilution in assay buffer. The data is analyzed in GraphPad Prism (GraphPad software Inc.) using non-linear regression to determine IC50 values of LTA4H inhibitors.

| SMILES | IC50 [3] [nM] | IC50 [4] [nM] | further results |
| --- | --- | --- | --- |
| N[C@H](CO)Cn1ccc(-c2ccc(Oc3ncc(-c4cc[nH]n4)cc3F)cc2)n1 [Example 42, (S)-2-amino-3-(3-(4-((3-fluoro-5-(1H-pyrazol-3-yl)pyridin-2-yl)oxy)phenyl)-1H-pyrazol-1-yl)propan-1-ol] | – | – | Hygroscopicity (DVS), moisture reversibly absorbed ([1]; above 70% RH, transforming into a hydrated form): 3%; Hygroscopicity (DVS), moisture / water vapor absorbed [1]: 2.97 @ 95%; Loss on drying by TGA, After 1 day at 92 % RH ([2]; listed as Ex 42): 2.46 @ % |
| N[C@H](CO)Cn1ccc(-c2ccc(Oc3ncc(-c4ccn[nH]4)cc3F)cc2)n1 [Example 44, (S)-2-amino-3-(3-(4-((3-fluoro-5-(1H-pyrazol-3-yl)pyridin-2-yl)oxy)phenyl)-1H-pyrazol-1-yl)propan-1-ol] | – | – | Hygroscopicity (DVS), moisture / water vapor absorbed [1]: 0.32% @ 95% RH; Hygroscopicity (DVS), moisture / water vapor absorbed ([1]; listed as hippuric acid salt (Form B)): about 0.3%; Loss on drying by TGA, After 1 day at 92 % RH ([2]; listed as Ex 44): 0.21 @ % |
| N[C@H](CO)Cn1ccc(-c2ccc(Oc3ncc(-c4ccn[nH]4)cc3F)cc2)n1 [Example 43, (S)-2-amino-3-(3-(4-((3-fluoro-5-(1H-pyrazol-5-yl)pyridin-2-yl)oxy)phenyl)-1H-pyrazol-1-yl)propan-1-ol] | – | – | Hygroscopicity (DVS), moisture / water vapor absorbed ([1]; listed as hydrochloride salt (Form E)): 0.6%; Loss on drying by TGA, After 1 day at 92 % RH ([2]; listed as Ex 43): 0.30 @ % |
| N[C@H](CO)Cn1ccc(-c2ccc(Oc3ncc(-c4cc[nH]n4)cc3F)cc2)n1 [Example 46, (S)-2-amino-3-(3-(4-((3-fluoro-5-(1H-pyrazol-3-yl)pyridin-2-yl)oxy)phenyl)-1H-pyrazol-1-yl)propan-1-ol] | – | – | Loss on drying by TGA, After 1 day at 92 % RH ([2]; listed as Ex 46): 0.96 @ % |
| N[C@H](CO)Cc1nc(-c2ccc(Oc3ccc(OC(F)F)cn3)cc2)no1 [Example 05, (S)-2-amino-3-(3-(4-((5-(difluoromethoxy)pyridin-2-yl)oxy)phenyl)-1,2,4-oxadiazol-5-yl)propan-1-ol] | 28.3 | 1850 | – |
| N[C@H](CO)Cn1ccc(-c2ccc(Oc3ncc(Cl)cc3F)cn2)n1 [Example 23, (S)-2-amino-3-(3-(5-((5-chloro-3-fluoropyridin-2-yl)oxy)pyridin-2-yl)-1H-pyrazol-1-yl)propan-1-ol] | 37.6 | 753 | – |
| N[C@H](CO)Cn1nnc(-c2ccc(Oc3ncc(-c4ccn[nH]4)cc3F)cn2)n1 [Example 22, (S)-2-amino-3-(5-(5-((3-fluoro-5-(1H-pyrazol-5-yl)pyridin-2-yl)oxy)pyridin-2-yl)-2H-tetrazol-2-yl)propan-1-ol] | 2.7 | 89 | – |
| N[C@H](CO)Cc1noc(-c2ccc(Oc3ccc(Cl)cn3)cc2)n1 [Example 06] | 9.4 | 510 | – |
| NC(CO)Cc1nnn(-c2ccc(Oc3ncc(Cl)cc3F)cc2)n1 (racemic) [Example 39, 2-Amino-3-(2-(4-((5-chloro-3-fluoropyridin-2-yl)oxy)phenyl)-2H-tetrazol-5-yl)propan-1-ol] | 2.2 | 63 | – |
| N[C@H](CO)Cn1nnc(-c2ccc(Oc3ccc(-c4ccn[nH]4)cn3)cc2)n1 [Example 20, (S)-3-(5-(4-((5-(1H-pyrazol-3-yl)pyridin-2-yl)oxy)phenyl)-2H-tetrazol-2-yl)-2-aminopropan-1-ol] | 3.2 | 75 | – |
| N[C@H](CO)Cn1ccc(-c2ccc(Oc3ncc(-c4ccn[nH]4)cc3F)cc2)n1 [Example 45, (S)-2-amino-3-(3-(4-((3-fluoro-5-(1H-pyrazol-5-yl)pyridin-2-yl)oxy)phenyl)-1H-pyrazol-1-yl)propan-1-ol] | – | – | Hygroscopicity (DVS), moisture / water vapor absorbed ([1]; listed as Modification A): about 0.5%; Hygroscopicity (DVS), moisture / water vapor absorbed ([1]; listed as hippurate salt (Form A)): 0.5% |
| N[C@H](CO)Cc1nc(-c2cccc(Oc3ccc(Cl)cn3)c2)no1 [Example 02, (S)-2-amino-3-(3-(3-((5-chloropyridin-2-yl)oxy)phenyl)-1,2,4-oxadiazol-5-yl)propan-1-ol] | 2.1 | 72 | – |
| N[C@H](CO)Cn1nnc(-c2ccc(Oc3ccc(Br)cn3)cc2)n1 [Example 33, (S)-2-Amino-3-(5-(4-((5-bromopyridin-2-yl)oxy)phenyl)-2H-tetrazol-2-yl)propan-1-ol] | 2.4 | 290 | – |
